Columns and labels:
[1] = tested on: Adult, female rats, mated; experiment: Prevention of implantation/pregnancy in mated rats (Example 2); assay type: in vivo, rat; settings: 10 μg s.c. b.i.d., day 3 to day 6 of gestation; for fate of the implantation sites: sacrificed day 13; for animals having implantation sites: sacrificed day 13, group of 9 (control: 8 of 9 pregnant); for total implantation sites found in the uteri of the group: sacrificed day 13, groups of 8 or 9 (control: 87 implantation and 3 resorbed sites)
Description: Adult, female rats weighing an average of 200 g. were mated and then randomly divided into groups of 8 and 9 rats. In all animals, mating was determined by the presence of sperms in the vaginal opening. In all animals, subcutaneous treatment was started on day 3 of gestation and continued until day 6 with 10 μg of the above compound, b.i.d. in an aqueous vehicle containing 0.1% bovine serum albumin and 0.9% sodium chloride at a concentration of 0.02% (wt./vol.). All animals were sacrificed on day 13 and checked for toxic manifestations, fetuses or viable implants.
In the first of four groups (control), the animals received the above vehicle only. […] Upon sacrifice, a total of 87 implantation and 3 resorbed sites was found in the uteri.

Pregnant rabbits = experiment: Fetal viability in pregnant rabbits after a single injection (Example 4); assay type: in vivo, rabbit; settings: single s.c. injection of 12.5 μg/kg on day 14 of gestation, sacrificed day 28 (control: 7 of 8 implants viable)
Description: Pregnant rabbits were given single subcutaneous injections of 12.5 μg/kg of the compounds used in Example 2 by the route and vehicle shown there on day 14 of gestation. […] In all instances, the animals were sacrificed on day 28 of gestation.

rats = experiment: Reversal of the anti-implantation effect by exogenous estradiol in treated rats; assay type: in vivo, rat; settings: rats treated days 2-6 of gestation, estradiol 0.1 μg s.c. in sesame oil on days 4 and 5; for animals in which implantation takes place when estradiol is co-administered: of 8 animals

Structure (SMILES) | fate of the implantation sites [1] | animals showing no signs of implantation ([1]; sacrificed day 13, group of 9) | animals having implantation sites [1] | total implantation sites found in the uteri of the group [1] | viable fetuses per implants (average) (Pregnant rabbits) | viability of embryos when estradiol is co-administered (rats) | animals in which implantation takes place when estradiol is co-administered (rats)
CCNC(=O)[C@@H]1CCCN1C(=O)[C@H](CCCNC(=N)N)NC(=O)[C@H](CC(C)C)NC(=O)[C@@H](Cc1c[nH]c2ccccc12)NC(=O)[C@H](Cc1ccc(O)cc1)NC(=O)[C@H](CO)NC(=O)[C@H](Cc1c[nH]c2ccccc12)NC(=O)[C@H](Cc1c[nH]cn1)NC(=O)[C@@H]1CCC(=O)N1 [Compound A] | all resorbed | Seven | two | 25 | one viable fetus per 7 implants | substantially only viable embryos | 3
CCNC(=O)[C@@H]1CCCN1C(=O)[C@H](CCCNC(=N)N)NC(=O)[C@H](CC(C)C)NC(=O)[C@@H](Cc1ccc(O)cc1)NC(=O)[C@H](Cc1ccc(O)cc1)NC(=O)[C@H](CO)NC(=O)[C@H](Cc1c[nH]c2ccccc12)NC(=O)[C@H](Cc1c[nH]cn1)NC(=O)[C@@H]1CCC(=O)N1 [Compound B] | all 22 counted sites had been resorbed | – | 2 | 22 | one viable fetus per 7 implants | substantially only viable embryos | 3
CCNC(=O)[C@@H]1CCCN1C(=O)[C@H](CCCNC(=N)N)NC(=O)[C@H](CC(C)C)NC(=O)[C@@H](Cc1ccccc1)NC(=O)[C@H](Cc1ccc(O)cc1)NC(=O)[C@H](CO)NC(=O)[C@H](Cc1c[nH]c2ccccc12)NC(=O)[C@H](Cc1c[nH]cn1)NC(=O)[C@@H]1CCC(=O)N1 [Compound C] | resorbed | – | – | single | one viable fetus per 7 implants | substantially only viable embryos | 3

Reference: patent US4034082A, “Method to prevent reproduction in warm-blooded female animals with nonapeptides” (Abbott Laboratories, priority 1976, dated 1977)
